# Data published in patent US9655912B2, “Reduction of gastrointestinal tract colonisation by campylobacter” (priority 2012, dated 2017).
# B1: MOMP(+): major outer membrane protein purified under native conditions from C. jejuni strain NCTC11168 (protein)
# chain: TPLEEAIKDVDVSGVLRYRYDTGNFDKNFVNNSNLNNSKQDHKYRAQVNFSAAIADNFKAFVQFDYNAADGGYGANGIKNDQKGLFVRQLYLTYTNEDVATSVIAGKQQLNLIWTDNAIDGLVGTGVKVVNNSIDGLTLAAFAVDSFMAAEQGADLLEHSNISTTSNQAPFKVDSVGNLYGAAAVGSYDLAGGQFNPQLWLAYWDQVAFFYAVDAAYSTTIFDGINWTLEGAYLGNSLDSELDDKTHANGNLFALKGSIEVNGWDASLGGLYYGDKEKASTVVIEDQGNLGSLLAGEEIFYTTGSRLNGDTGRNIFGYVTGGYTFNETVRVGADFVYGGTKTEAANHLGGGKKLEAVARVDYKYSPKLNFSAFYSYVNLDQGVNTNESADHSTVRLQALYKF
# Tests used:
# C. jejuni = assay: ELISA: inhibition of C. jejuni adherence to BgAgs (Core-I, Core-II, H-I, H-II, Leb, Ley, Lex) by Ferric Quinate; type: binding, Campylobacter jejuni; conditions: for Inhibition of C. jejuni binding to BgAgs: 34 μM Fe(QA)3, pre-incubation and post-treatment, ELISA
# Procedure: The inhibitory potential of Ferric Quinate Fe(QA)3 on adherence of C. jejuni was analyzed by ELISA using BgAgs (Core-I, Core-II, H-I, H-II, Leb, Ley and Lex). C. jejuni was pre-incubated with 34 μM Fe(QA)3 and specific inhibition was also analyzed by post-treatment of C. jejuni with Fe(QA)3 which bound to BgAgs at the time.
# C. jejuni NCTC11168-O = assay: Chicken caecal colonisation after oral challenge, Ferric Quinate as additive to water; type: in vivo; conditions: 0.34 mM in water, 6-weeks old birds, 3 and 7 days post-challenge
# Procedure: These inhibitory properties against C. jejuni adherence to BgAgs were analyzed in vivo. Ferric Quinate was used as an additive to water (0.034-0.34 mM) and as an inhibitor of C. jejuni NCTC11168 strain adherence to, and thus colonization, in the chicken intestinal tract. 6-weeks old birds (n=10 per group) were challenged with 3×10^3-5 cfu wild-type strain NCTC11168-O by oral gavage. Caecal colonisation levels were determined in birds from each group at 3 and 7 days post-challenge.
# [1] = tested on: C. jejuni NCTC11168 strain; assay: Growth of C. jejuni in culture medium supplemented with Fe(QA)3; type: cell-based, Campylobacter jejuni; conditions: 34 and 340 μM in culture medium
# Source text: To further clarify the growth-effect properties of Fe(QA)3, we investigated the effect of adding Fe(QA)3 to the culture medium.
# [2] = tested on: C. jejuni strain NCTC11168; assay: Inhibition ELISA of binding of strain NCTC11168 to H-II glycoconjugate; design: species or system Campylobacter jejuni; conditions: p<0.001, FIG. 2A
# Procedure: Purified MOMP from NCTC11168 (MOMP(+)), and pre-incubation of NCTC11168 bacterial cells with H-II glycoconjugate (H-II). […] B) ELISA plate was coated with a selection of BgAgs. Specific binding was calculated by subtracting the BSA (negative control) values from the BgAg absorbance at 405 nm. Strain NCTC11168 and Cj-266 (high binder strain, S3—Table 1), and corresponding ΔflaA mutants, have been examined for binding to Le^b, H-II, H-I, Le^x and Le^a. t-test confirmed the reduction in binding seen with mutants are significant (Le^b; p=2.5E-05, H-II; p=0.012, H-I; p=0.001, Le^x; p=0.029 and Le^a; p=0.000) in strain NCTC11168. However, Cj-266ΔflaA mutation had no effect on binding, which indicates the binding capacity was compensated by MOMP protein. Each group of bars from left to right: NCTC11168, 11168-ΔflaA, Cj-266, Cj-266ΔflaA. C) A double mutant (DM) of ΔflaA and single substitution of glycosylation site in MOMP protein (Thr^268 was substituted with Gly) was constructed in both strain NCTC11168 and Cj-266, and the binding to Le^b H-I and H-II was examined. […] Each group of bars from left to right: Leb, H-II, H-1.
# Deletion mutant of ΔflaA in strains NCTC11168 and Cj-266 (a clinical isolate, S3—Table) were constructed.
Molecule,Inhibition of C. jejuni binding to BgAgs (C. jejuni),"Inhibition of microbial adherence, bacterial culture (MH) containing Fe(QA)3 (C. jejuni; bacteria cultured on MH containing Fe(QA)3)",Resistance concerning the binding abilities after sequential passages (C. jejuni; sequential passages (P) of bacteria to new plate containing Fe(QA)3),Reduction of adhesion of C. jejuni to the intestinal mucosa (caecal colonisation) (C. jejuni NCTC11168-O),Effect on growth of C. jejuni NCTC11168 [1],Bacterial binding to H-II antigen [2],Bacterial binding to H-II antigen ([2]; listed as purified MOMP)
"O=C(O)[C@]1(O)C[C@@H](O)[C@@H](O)[C@H](O)C1 [Quinic Acid, D-(−)-quinic acid, reference compound]",no inhibition,–,–,–,–,–,–
Ferric quinate [Fe(QA)3],90%,reproducible inhibition,didn't cause any resistance,2-3 Log,did not affect the growth,–,–
B1,–,–,–,–,–,significantly reduced,significantly inhibited
